Measured values reported in article PMC4608773, “Elisidepsin Interacts Directly with Glycosylceramides in the Plasma Membrane of Tumor Cells to Induce Necrotic Cell Death” (PLoS ONE, 2015).
Read-outs that look alike come from different tables or passages of the source.

Experiments:
[1] = test system: GM95 cells (UGCG-deficient B16 mutant); test: Cell viability assay (SRB colorimetric); type: cell-based, mouse; settings: negative values where GM95 is the more sensitive line
Description: (§1) Cells were seeded in 96-well microtiter plates and maintained at 37°C and 5% CO2 in drug-free medium before treatment with vehicle alone or elisidepsin at the concentrations and times indicated in the text. For cell survival quantification, a colorimetric assay using SRB was used. Briefly, after treatment, cells were washed twice with phosphate buffered saline (PBS), fixed for 25 min in 1% glutaraldehyde solution, rinsed twice with PBS, stained in 0.4% SRB-1% acetic acid solution for 30 min, rinsed several times with 1% acetic acid solution, and air-dried. […] Results are expressed as percentage of control cell survival and represent the mean of at least three independent experiments. IC50, half-maximal inhibitory concentration, was used as a reference value.

B16 cells = test: Cell viability assay (SRB colorimetric); type: cell-based, mouse; settings: SRB assay; mean of three different experiments; read-out: B16 (IC50), cell growth half-maximal inhibitory concentration
Description: as §1

[2] = test system: HCT-116-Irv cells (elisidepsin-resistant subline); test: cells
Description: B16 and GM95 cells were maintained in DMEM with the same supplements and conditions.
as §1

HCT-116-Irv cells = test: Electrophysiological recordings of membrane conductance (whole-cell patch-clamp); type: cell-based, human; settings: elisidepsin 1 μM; ramps -100 mV to +120 mV, 500 ms
Description: (§2) The effects of elisidepsin on membrane conductance were analyzed in HCT-116 and HCT-116-Irv cells as previously described. Experiments were performed in a small bath mounted on the stage of an inverted microscope (Nikon model TMS, Garden City, NY, USA) continuously perfused with the extracellular solution (Tyrode-glucose buffer). Ion currents were recorded at room temperature (20–22°C) using the whole-cell voltage-clamp configuration of the patch-clamp technique with an Axopatch 200B patch-clamp amplifier (Axon Instruments, Foster City, CA). Currents were filtered at 2 kHz (four-pole Bessel filter), sampled at 4 kHz. Data acquisition and command potentials were controlled by the CLAMPEX program of PCLAMP 9.2 software (Axon Instruments). Micropipettes were pulled from borosilicate glass capillary tubes (Narishige, GD-1, Tokyo, Japan) on a programmable horizontal puller (Sutter Instrument Co., San Rafael, CA, USA) and heat-polished with a microforge (Narishige). Pipette tip resistance averaged between 1 and 3 MΩ. The intracellular pipette solution contained (in mM): K-aspartate 80, KCl 50, phosphocreatine 3, KH2PO4 10, MgATP 3, HEPES-K 10, EGTA-K 5 and was adjusted to pH 7.25 with KOH. The external solution (Tyrode-glucose buffer) contained (in mM): NaCl 130, KCl 4, CaCl2 1.8, MgCl2 1, HEPES-Na 10, and glucose 10, and was adjusted to pH 7.40 with NaOH. Measurements were performed using the CLAMPFIT program of PCLAMP 9.2.

HCT-116 cells [3] = test: as above; type: cell-based, human; settings: elisidepsin 1 μM, ramps -100 mV to +120 mV, 500 ms, n = 4
Description: as §2

HCT-116 cells [4] = test: cells
Description: as §1

[5] = Lipid overlay (dot-blot) assay with elisidepsin-biotin; type: binding, human; settings: elisidepsin-biotin:elisidepsin 1:1 and 1:15
Description: Lipid extracts from cells were obtained according to the Bligh and Dyer method with slight modifications. Briefly, a cell pellet was resuspended in 1 mL of distilled water, then 3.75 mL of chloroform:methanol (1:2) was added and the suspension was mixed by vortexing two minutes; next, 1.25 mL of chloroform was added and vortexed one minute; last, 1.25 mL of NaCl 1 M was added to the suspension and vortexed one minute. The suspension was centrifuged and the bottom organic phase was collected. This solution was dried under a nitrogen stream and stored at -20°C. This extract was dissolved in a small volume of chloroform:methanol (2:1) and lipids were separated in a HPTLC (high performance thin layer chromatography) silica gel plate (Merck-Millipore, Darmstad, Germany) using a mobile phase of chloroform:methanol (8:2). Lipids were visualized by staining the plate with thioflavine S (sprayed with 10 μg mL^-1 in acetone:water (4:1) and visualized under UV light). Glycosylated lipids were visualized by orcinol staining (sprayed with orcinol 0.5% in sulphuric acid 0.5 M and developed with heat). […]
Interaction of purified lipid fractions with elisidepsin was evaluated with an overlay assay. […] Elisidepsin-biotin interactions were detected by incubation with streptavidin-HRP and subsequent chemiluminescence.

GM95-UGCG cells = settings: read-out: mean IC50, GM95-UGCG cells; 72 h treatment (Fig 4C); SRB; at least three experiments
Description: as §1

C/C=C1\NC(=O)[C@H](Cc2ccccc2)NC(=O)[C@@H](C(C)C)NC(=O)[C@@H]([C@@H](C)CC)NC(=O)[C@H](NC(=O)[C@H](NC(=O)[C@H](CCCN)NC(=O)[C@H]2CCCN2C(=O)[C@H](NC(=O)[C@@H](NC(=O)[C@@H](NC(=O)[C@H](NC(=O)CC[C@@H](C)CC)C(C)C)[C@@H](C)O)C(C)C)C(C)C)[C@@H](C)CC)[C@@H](C)OC(=O)[C@H](C(C)C)NC1=O [Elisidepsin]
RR: fold change between IC50 values from GM95 and B16 [1]: 8.9 | IC50 (B16 cells): 7.9 µM | RR (resistance ratio): fold change between IC50 values from HCT-116-Irv and HCT-116 ([2]; negative values where HCT-116-Irv is the more sensitive line): 14.7 | IC50 ([2]; read-out: HCT-116-Irv (IC50), cell growth half-maximal inhibitory concentration, SRB assay, 96-well, mean of three different experiments, exposure time not given): 81 µM | IC50 ([2]; read-out: IC50 after 30 min exposure, HCT-116-Irv, 30 min exposure, SRB, at least three experiments): > 100 µM | IC50 ([2]; read-out: IC50 after 72 h exposure, HCT-116-Irv, 72 h exposure, SRB, mean±SD of at least three experiments): 81.5 ± 0.8 µM | Effect on membrane conductance (HCT-116-Irv cells): virtually no effect | Time constant of the increase of membrane conductance (HCT-116 cells [3]; holding -80 mV, 20–22°C): 107 ± 39 s | Latency between application and the beginning of the effects on membrane conductance (HCT-116 cells [3]): 460 ± 163 s | Sensitivity of HCT-116 cells to elisidepsin after pretreatment with UGCG inhibitor NB-DNJ (HCT-116 cells [4]; pretreated 48 h with NB-DNJ 200 μM, elisidepsin 30 min incubation, SRB, three experiments): increase in cell resistance | Sensitivity of HCT-116 cells to elisidepsin after pretreatment with UGCG inhibitor PDMP (HCT-116 cells [4]; pretreated 72 h with PDMP 10 μM, elisidepsin 30 min incubation, SRB, three experiments): increase in cell resistance | IC50 (HCT-116 cells [4]; read-out: HCT-116 (IC50), cell growth half-maximal inhibitory concentration, SRB assay, 96-well, mean of three different experiments, exposure time not given): 5.5 µM | IC50 (HCT-116 cells [4]; read-out: IC50 after 30 min exposure, HCT-116, 30 min exposure, SRB, mean±SD of at least three experiments): 7.7 ± 4.1 µM | Competition with elisidepsin-biotin for lipid fraction 4 [5]: could displace the biotinylated compound | IC50 (GM95-UGCG cells): 9 µM
